Source: US11717580B2, “Cyclodextrin-linked polyvalent ligands for complexation of metal ions” (UTI LIMITED PARTNERSHIP, priority 2018, dated 2023)
Read-outs that look alike come from different tables or passages of the source. One block for each compound: values may come before it.

Key:
HepG2 cells = assay: In vitro cytotoxicity MTT assay, HepG2; type: cell-based; details: concentrations higher than 1 mM
[1] = Potentiometric titrations of compound 5 (protonation constants); type: physicochemical
Protocol: T=298K, [L]=0.0625-1 μmol, [extra-HCl]=0-37.3 μmol in NMe4Cl (0.1 M); total initial volume: 4 mL; burette: [NMe4OH]=0.05 M.
Potentiometric titrations were performed to study the deprotonation of compound 5 (FIG. 6). The initial solution of compound 5 alone has a pH of ˜8.4; this value correlates well with extensive deprotonation observed in ATR-FTIR spectrum. Therefore, a solution of HCl in trimethylammonium chloride (0.1 M) was gradually added to the solution to obtain a series of solutions with varied HCl/5 ratios (0→597), while maintaining the total volume constant. To each prepared solution, a titrant solution of tetramethylammonium hydroxide (0.05 M) was added while the pH of the solution recorded; this enabled preparation of a series of titration curves (FIG. 7).
The protonation constant βh for the following equilibrium is defined by equation 1, where L represents the fully deprotonated form (L^14−) of compound 5 (LH14). H is the proton (charges are omitted).
[formula] As dissociation constants Ka are commonly defined by:
[formula] [formula] [formula] it is evident that Ka=log βh−log βh-1 (equation 3)
Table 1 reports all protonation constants determined by titration curve refinement and the corresponding acidity constants. All pKa values were ascribed to successive deprotonation of the carboxylic acids, followed by ammonium functions.

HeLa cells = assay: In vitro cytotoxicity MTT assay, HeLa; type: cell-based; details: concentrations higher than 1 mM
[2] = Potentiometric titrations of compound 5 with Gd(III) (stability constants and speciation of Gd(III) complexes); type: binding
From the text: Considering the collection of results obtained for the Gd(III)-compound 5, the best chemical model which fits the data corresponds to: (1) mononuclear GdL species for Gd:L ratio lower than 1, (2) binuclear species Gd2L for Gd:L ratio higher than 1 or (3) trinuclear species Gd3L for Gd:L ratio higher than 2.
The complexation of compound 5 with Gd(III) was studied by potentiometric titrations. While maintaining the amount of compound 5 (0.5 μmol) and HCl (9.95 μmol) constant within the cell, a solution of GdCl3 was then added to reach a specified ratio. This solution was then titrated with tetramethylammonium hydroxide (NMe4OH). It was noted that with the solution containing the highest Gd:L ratios, the addition of same amount of base caused a slower increase of pH (FIG. 12A). This could be explained by the displacement of protons from the protonated groups during Gd(III) complexation, thus acidifying the medium.
The stability constants of the Gd(III) complexes are expressed by the general formula:
[formula] with M being the metal ion, L the ligand, and H the proton (the charges are omitted), and dissociation constant Kmlh can be defined similarly to the case of free ligand as:
[formula] [formula] [formula] Analogously, pKmlh=log βmlh−log βmlh-1 (equation 6)
The stability constants of the Gd(III) complexes are reported in the Table 2 and distribution curves given in FIGS. 12B, 12C and 12D, respectively for 1:1, 2:1 and 3:1 Gd(III):compound 5 ratios.

[3] = 12 MHz; cited from earlier work
[4] = cited from earlier work

pH of initial solution ([1]; compound 5 alone): ~8.4 | log βLHh ([1]; species LH): 8.80 | pKa ([1]; species LH): 8.80 | log βLHh ([1]; species LH2): 17.77 | pKa ([1]; species LH2): 9.08 | log βLHh ([1]; species LH3): 26.44 | pKa ([1]; species LH3): 8.56 | log βLHh ([1]; species LH4): 34.51 | pKa ([1]; species LH4): 8.07 | log βLHh ([1]; species LH5): 42.44 | pKa ([1]; species LH5): ~7.93 | log βLHh ([1]; species LH6): 50.03 | pKa ([1]; species LH6): ~7.59 | log βLHh ([1]; species LH7): 56.23 | pKa ([1]; species LH7): 6.20 | log βLHh ([1]; species LH8): 61.22 | pKa ([1]; species LH8): 4.99 | log βLHh ([1]; species LH9): 64.85 | pKa ([1]; species LH9): 3.63 | log βLHh ([1]; species LH10): 67.42 | pKa ([1]; species LH10): 2.57 | pKa ([1]; species LH11-LH21): <2
Compound: O=C(O)CN(CC(=O)O)Cc1cn(C[C@H]2O[C@@H]3O[C@H]4[C@H](O)[C@@H](O)[C@@H](O[C@H]5[C@H](O)[C@@H](O)[C@@H](O[C@H]6[C@H](O)[C@@H](O)[C@@H](O[C@H]7[C@H](O)[C@@H](O)[C@@H](O[C@H]8[C@H](O)[C@@H](O)[C@@H](O[C@H]9[C@H](O)[C@@H](O)[C@@H](O[C@H]2[C@H](O)[C@H]3O)O[C@@H]9Cn2cc(CN(CC(=O)O)CC(=O)O)nn2)O[C@@H]8Cn2cc(CN(CC(=O)O)CC(=O)O)nn2)O[C@@H]7Cn2cc(CN(CC(=O)O)CC(=O)O)nn2)O[C@@H]6Cn2cc(CN(CC(=O)O)CC(=O)O)nn2)O[C@@H]5Cn2cc(CN(CC(=O)O)CC(=O)O)nn2)O[C@@H]4Cn2cc(CN(CC(=O)O)CC(=O)O)nn2)nn1 [Compound 5]
cytotoxic effect (inhibition) (HepG2 cells): 20-40% | cytotoxic effect (inhibition) (HeLa cells): 20-40% | log βMLHh ([2]; dinuclear species Gd2L (MLH 210)): 36.28 | log βGd (210)−log βGd (110) ([2]; introduction of second Gd(III) cation): 11.19 | log βGd (310)−log βGd (210) ([2]; introduction of third Gd(III) cation): 7.63

Compound: CO[C@@H]1[C@@H](OC)[C@H]2O[C@H]3[C@H](OC)[C@@H](OC)[C@@H](O[C@H]4[C@H](OC)[C@@H](OC)[C@@H](O[C@H]5[C@H](OC)[C@@H](OC)[C@@H](O[C@H]6[C@H](OC)[C@@H](OC)[C@@H](O[C@H]7[C@H](OC)[C@@H](OC)[C@@H](O[C@H]8[C@H](OC)[C@@H](OC)[C@@H](O[C@@H]1[C@@H](CN(CC(=O)O)CC(=O)O)O2)O[C@@H]8CN(CC(=O)O)CC(=O)O)O[C@@H]7CN(CC(=O)O)CC(=O)O)O[C@@H]6CN(CC(=O)O)CC(=O)O)O[C@@H]5CN(CC(=O)O)CC(=O)O)O[C@@H]4CN(CC(=O)O)CC(=O)O)O[C@@H]3CN(CC(=O)O)CC(=O)O [compound 3]
relaxivity [3]: 8.8 mM⁻¹ s⁻¹

Compound: CC[N+](CC)(CC)CC [triethylammonium]
pKa [4]: ~10.75
